In one experiment the test system is MLKL phosphorylation in HT29-L23 human colorectal adenocarcinoma cells. Briefly: MLKL phosphorylation high-content assay. Type of experiment: cell-based. The note with it: HT29-L23 cells; necroptosis induced with TNFα, SMAC mimetic and Z-VAD, 6 h; maximal inhibition defined by Nec1s; read-out: pMLKL IC50.
Turning to `[2H]C([2H])([2H])C(O)(c1ccc(F)cc1)C(F)CNC(=O)c1c(Cl)ccc(-c2ccn3nc(N)nc3c2)c1F` (single isomer, unassigned) [Example 240, 3-(2-amino-[1,2,4]triazolo[1,5-a]pyridin-7-yl)-6-chloro-2-fluoro-N-(2-fluoro-3-(4-fluorophenyl)-3-hydroxybutyl-4,4,4-d3)benzamide], the IC50 stood at 3.1 nM.

With `CCC(O)(c1ccc(F)cc1)C(F)(F)CNC(=O)c1c(Cl)ccc(-c2ccn3nc(N)nc3c2)c1F` (single isomer, unassigned) [Example 313, 3-(2-amino-[1,2,4]triazolo[1,5-a]pyridin-7-yl)-6-chloro-N-(2,2-difluoro-3-(4-fluorophenyl)-3-hydroxypentyl)-2-fluorobenzamide], the IC50 is 3.8 nM. Same read-out and setting: with `[2H]C([2H])([2H])C(O)(c1ccc(F)cc1)C(F)CNC(=O)c1c(Cl)ccc(-c2ccn3nc(N)nc3c2)c1F` (single isomer, unassigned) [Example 237, 3-(2-amino-[1,2,4]triazolo[1,5-a]pyridin-7-yl)-6-chloro-2-fluoro-N-(2-fluoro-3-(4-fluorophenyl)-3-hydroxybutyl-4,4,4-d3)benzamide] the figure was 86 nM; with `CCC(O)(c1ccc(F)cc1)C(F)(F)CNC(=O)c1c(Cl)ccc(-c2ccn3nc(N)nc3c2)c1F` (single isomer, unassigned) [Example 314, 3-(2-amino-[1,2,4]triazolo[1,5-a]pyridin-7-yl)-6-chloro-N-(2,2-difluoro-3-(4-fluorophenyl)-3-hydroxypentyl)-2-fluorobenzamide], 17 nM. `[2H]C([2H])([2H])C(O)(c1ccc(F)cc1)C(F)CNC(=O)c1c(C(F)F)ccc(-c2ccn3nc(N)nc3c2)c1F` (single isomer, unassigned) [Example 194, 3-(2-amino-[1,2,4]triazolo[1,5-a]pyridin-7-yl)-6-(difluoromethyl)-2-fluoro-N-(2-fluoro-3-(4-fluorophenyl)-3-hydroxybutyl-4,4,4-d3)benzamide]: the IC50 was found to be 8.8 nM. Still for that read-out and setting: the result for `COc1ccc(-c2ccn3nc(N)nc3c2)c(F)c1C(=O)NCC(F)(F)C(O)c1ccc(F)cc1` (single isomer, unassigned) [Example 124, 3-(2-amino-[1,2,4]triazolo[1,5-a]pyridin-7-yl)-N-(2,2-difluoro-3-(4-fluorophenyl)-3-hydroxypropyl)-2-fluoro-6-methoxybenzamide] reads 1.4 nM; that for `Cc1c(C(=O)NCC(F)(F)C(O)c2ccc(F)cc2)cc(-c2ccn3nc(N)nc3c2)c(F)c1F` (single isomer, unassigned) [Example 107, 5-(2-amino-[1,2,4]triazolo[1,5-a]pyridin-7-yl)-N-(2,2-difluoro-3-(4-fluorophenyl)-3-hydroxypropyl)-3,4-difluoro-2-methylbenzamide], 0.4 nM.

Staying with this experiment, now noted: Homo sapiens, 6 h, HT29-L23 cells; necroptosis induced with TNFα, SMAC mimetic and Z-VAD, 6 h; maximal inhibition defined by Nec1s; read-out: pMLKL IC50.
As to `C[C@@](O)(c1ccc(F)cc1)[C@@H](F)CNC(=O)c1c(Cl)ccc(-c2ccn3nc(N)nc3c2)c1F` [Example 211, 3-(2-amino-[1,2,4]triazolo[1,5-a]pyridin-7-yl)-6-chloro-2-fluoro-N-((2S,3R)-2-fluoro-3-(4-fluorophenyl)-3-hydroxybutyl)benzamide], the IC50 is 45 nM. Consider `Cc1ccc(-c2ccn3nc(N)nc3c2)c(F)c1C(=O)NCC(F)(F)C(C)(O)c1ccc(F)cc1` (single isomer, unassigned) [Example 61, 3-(2-amino-[1,2,4]triazolo[1,5-a]pyridin-7-yl)-N-(2,2-difluoro-3-(4-fluorophenyl)-3-hydroxybutyl)-2-fluoro-6-methylbenzamide], for which the IC50 worked out at 0.8 nM. `Nc1nc2cc(-c3ccc(Cl)c(C(=O)NCC(F)(F)[C@H](F)c4ccc(F)cc4)c3F)ccn2n1` [Example 288, (R)-3-(2-amino-[1,2,4]triazolo[1,5-a]pyridin-7-yl)-6-chloro-2-fluoro-N-(2,2,3-trifluoro-3-(4-fluorophenyl)propyl)benzamide]: the IC50 came to 1 nM. On the same count and under the same terms, with `Nc1nc2cc(-c3ccc(F)c(C(=O)NCC(F)(F)[C@H](F)c4ccc(F)cc4)c3F)ccn2n1` [Example 287, (R)-3-(2-amino-[1,2,4]triazolo[1,5-a]pyridin-7-yl)-2,6-difluoro-N-(2,2,3-trifluoro-3-(4-fluorophenyl)propyl)benzamide] the figure was 0.8 nM; with `C[C@@](O)(c1ccc(F)cc1)[C@H](F)CNC(=O)c1c(Cl)ccc(-c2ccn3nc(N)nc3c2)c1F` [Example 210, 3-(2-amino-[1,2,4]triazolo[1,5-a]pyridin-7-yl)-6-chloro-2-fluoro-N-((2R,3R)-2-fluoro-3-(4-fluorophenyl)-3-hydroxybutyl)benzamide], 2.5 nM; with `[2H]C([2H])([2H])c1ccc(-c2ccn3nc(N)nc3c2)c(F)c1C(=O)NC[C@H](F)[C@@](C)(O)c1ccc(F)cc1` [Example 213, 3-(2-amino-[1,2,4]triazolo[1,5-a]pyridin-7-yl)-2-fluoro-N-((2S,3S)-2-fluoro-3-(4-flurophenyl)-3-hydroxybutyl)-6-(methyl-d3)benzamide], 13 nM.

In the case of `Cc1ccc(-c2ccn3nc(N)nc3c2)c(F)c1C(=O)NCC(C)(O)C(=O)c1ccc(F)cc1` (stereo not drawn) [Example 279, 3-(2-amino-[1,2,4]triazolo[1,5-a]pyridin-7-yl)-2-fluoro-N-(3-(4-fluorophenyl)-2-hydroxy-2-methyl-3-oxopropyl)-6-methylbenzamide], the concentration for half-maximal inhibition (IC50) stood at 8.3 nM.

For `Nc1nc2cc(-c3ccc(C(F)(F)F)c(C(=O)NCC(F)(F)[C@H](F)c4ccc(F)cc4)c3F)ccn2n1` [Example 289, (R)-3-(2-amino-[1,2,4]triazolo[1,5-a]pyridin-7-yl)-2-fluoro-N-(2,2,3-trifluoro-3-(4-fluorophenyl)propyl)-6-(trifluoromethyl)benzamide], the IC50 was 1.7 nM. As to `[2H]C([2H])([2H])c1ccc(-c2ccn3nc(N)nc3c2)c(F)c1C(=O)NC[C@@H](F)[C@](C)(O)c1ccc(F)cc1` [Example 214, 3-(2-amino-[1,2,4]triazolo[1,5-a]pyridin-7-yl)-2-fluoro-N-((2R,3R)-2-fluoro-3-(4-fluorophenyl)-3-hydroxybutyl)-6-(methyl-d3)benzamide], the IC50 stood at 0.9 nM. As for `CCc1ccc(-c2ccn3nc(N)nc3c2)c(F)c1C(=O)NCC(F)(F)C(O)c1ccc(F)cc1` (single isomer, unassigned) [Example 120, 3-(2-amino-[1,2,4]triazolo[1,5-a]pyridin-7-yl)-N-(2,2-difluoro-3-(4-fluorophenyl)-3-hydroxypropyl)-6-ethyl-2-fluorobenzamide], the IC50 was determined as 1.4 nM.

In the case of `Cc1c(C(=O)NCC(F)(F)C(O)c2ccc(F)cc2)cc(-c2ccn3nc(N)nc3c2)c(F)c1F` (single isomer, unassigned) [Example 106, 5-(2-amino-[1,2,4]triazolo[1,5-a]pyridin-7-yl)-N-(2,2-difluoro-3-(4-fluorophenyl)-3-hydroxypropyl)-3,4-difluoro-2-methylbenzamide], the IC50 is 0.5 nM. Take `C[C@](O)(c1ccc(F)cc1)[C@@H](F)CNC(=O)c1c(Cl)ccc(-c2ccn3nc(N)nc3c2)c1F` [Example 209, 3-(2-amino-[1,2,4]triazolo[1,5-a]pyridin-7-yl)-6-chloro-2-fluoro-N-((2S,3S)-2-fluoro-3-(4-fluorophenyl)-3-hydroxybutyl)benzamide]: the IC50 amounted to 80 nM. The same measure, in the same setting: with `Cc1c(F)cc(-c2ccn3nc(N)nc3c2)cc1C(=O)NCCC(C)(O)c1ccccc1` (stereo not drawn) [Example 96, 5-(2-amino-[1,2,4]triazolo[1,5-a]pyridin-7-yl)-3-fluoro-N-(3-hydroxy-3-phenylbutyl)-2-methylbenzamide] the figure was 39 nM.

For `Nc1nc2cc(-c3ccc(C(F)(F)F)c(C(=O)NCC(F)(F)[C@@H](F)c4ccc(F)cc4)c3F)ccn2n1` [Example 286, (S)-3-(2-amino-[1,2,4]triazolo[1,5-a]pyridin-7-yl)-2-fluoro-N-(2,2,3-trifluoro-3-(4-fluorophenyl)propyl)-6-(trifluoromethyl)benzamide], the IC50 was found to be 1 nM. Take `Nc1nc2cc(-c3cc(C(=O)NCC(F)(F)C(O)c4ccc(F)cc4)c(Cl)cc3Cl)ccn2n1` (racemic) [Example 127]: the IC50 was determined as 9.7 nM. Same read-out and setting: the result for `CCc1ccc(-c2ccn3nc(N)nc3c2)c(F)c1C(=O)NCC(F)(F)C(O)c1ccc(F)cc1` (stereo not drawn) [Example 121, 3-(2-amino-[1,2,4]triazolo[1,5-a]pyridin-7-yl)-N-(2,2-difluoro-3-(4-fluorophenyl)-3-hydroxypropyl)-6-ethyl-2-fluorobenzamide] reads 1 nM; that for `C[C@](O)(c1ccc(F)cc1)[C@H](F)CNC(=O)c1c(Cl)ccc(-c2ccn3nc(N)nc3c2)c1F` [Example 212, 3-(2-amino-[1,2,4]triazolo[1,5-a]pyridin-7-yl)-6-chloro-2-fluoro-N-((2R,3S)-2-fluoro-3-(4-fluorophenyl)-3-hydroxybutyl)benzamide], 0.8 nM; that for `Cc1c(C(=O)NCC(F)(F)C(O)c2ccc(Cl)cc2)cc(-c2ccn3nc(N)nc3c2)c(F)c1F` (single isomer, unassigned) [Example 104, 5-(2-amino-[1,2,4]triazolo[1,5-a]pyridin-7-yl)-N-(3-(4-chlorophenyl)-2,2-difluoro-3-hydroxypropyl)-3,4-difluoro-2-methylbenzamide], 0.3 nM.

Staying with this experiment, now noted: Homo sapiens, 6 h, read-out: pMLKL IC50, HT29-L23 cells; necroptosis induced with TNFα, SMAC mimetic and Z-VAD, 6 h; maximal inhibition defined by Nec1s.
Regarding `CC(CCNC(=O)c1cccc(-c2ccn3nc(N)nc3c2)c1)c1ccccc1` (stereo not drawn) [Example 316, 3-(2-amino-[1,2,4]triazolo[1,5-a]pyridin-7-yl)-N-(3-phenylbutyl)benzamide], the IC50 worked out at 25 nM.

The experiment is the same for the next values; noted with them: Homo sapiens, Table 22, compounds of the present invention; read-out: pMLKL IC50.
For `Cc1ccc(-c2ccn3nc(N)nc3c2)c(F)c1C(=O)NCC(C)(O)C(=O)c1ccc(F)cc1` (stereo not drawn) [Example 279, 3-(2-amino-[1,2,4]triazolo[1,5-a]pyridin-7-yl)-2-fluoro-N-(3-(4-fluorophenyl)-2-hydroxy-2-methyl-3-oxopropyl)-6-methylbenzamide], the IC50 stood at 8.3 nM.

Staying with this experiment, now noted: Homo sapiens, Table 23, representative compounds from WO2018/148626; read-out: pMLKL IC50.
For the compound `CC(CCNC(=O)c1cc(-c2ccn3nc(N)nc3c2)cnc1Cl)c1ccccc1` (stereo not drawn) [Example 170], the IC50 was found to be 48 nM. Regarding `COc1ncc(-c2ccn3nc(N)nc3c2)cc1C(=O)NC(C)CCc1ccccc1` (stereo not drawn) [Example 101], the IC50 is 82 nM.

The same experiment, now with this note: Homo sapiens, read-out: pMLKL IC50, Table 22, compounds of the present invention.
Consider `CC(CCNC(=O)c1cccc(-c2ccn3nc(N)nc3c2)c1)c1ccccc1` (stereo not drawn) [Example 316, 3-(2-amino-[1,2,4]triazolo[1,5-a]pyridin-7-yl)-N-(3-phenylbutyl)benzamide], for which the IC50 is 25 nM.

The term IC50 denotes the concentration at which inhibition is half-maximal.
